Some test systems named below: SK-OV-3 ovarian; HOP-62 NSCLC; HOP-92 NSCLC; 786-0 renal; OVCAR-5 ovarian; TK-10 renal; COLO 205 colon; IGROV1 ovarian; SNB-19 CNS; HL-60(TB) leukemia.
Common to all, as to test: growth of human tumour cells (NCI), 48 h

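Tested at 5 concentrations; 48 h exposure; 96-well plates; endpoints linearly interpolated, else capped at highest concentration. GI50: concentration for 50% inhibition of growth. Definition used: TGI = concentration required for complete inhibition of growth.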

As for `CC1(C)CC[C@H](Nc2ncc(C(F)(F)F)c(-c3c[nH]c4c(P(C)(C)=O)c(C#N)ccc34)n2)CN1`, the GI50 is 1.07 µM in the assay on SK-OV-3 ovarian; 0.0132 µM in the assay with HOP-62 NSCLC; 0.345 µM in the assay with HOP-92 NSCLC; 0.201 µM in the assay on 786-0 renal; 0.144 µM in the assay with OVCAR-5 ovarian; 0.711 µM in the assay with TK-10 renal. Also, the GI50 in the assay with COLO 205 colon was under 0.01 µM; with IGROV1 ovarian it was 0.0231 µM; with SNB-19 CNS, 0.0439 µM; in the assay on HL-60(TB) leukemia, under 0.01 µM. Besides, the TGI in the assay with SK-OV-3 ovarian was 5.46 µM; with HOP-62 NSCLC, 6.69 µM; with HOP-92 NSCLC, 28.8 µM; in the assay with 786-0 renal it was 19.2 µM; in the assay with OVCAR-5 ovarian, over 37.7 µM; in the assay on TK-10 renal it was over 53.9 µM. In addition, the TGI in the assay with COLO 205 colon is 0.773 µM; in the assay with IGROV1 ovarian, 14.5 µM; in the assay on SNB-19 CNS it was over 54.3 µM; in the assay with HL-60(TB) leukemia it was 2.37 µM.
Turning to `CSC(CC(=O)O)C(=O)O` (stereo not given), the TGI in the assay on SK-OV-3 ovarian, with HOP-62 NSCLC, in the assay on HOP-92 NSCLC, in the assay with 786-0 renal, with OVCAR-5 ovarian and in the assay with TK-10 renal was over 100 µM each time. Also, the TGI in the assay on COLO 205 colon, in the assay with IGROV1 ovarian, in the assay with SNB-19 CNS and with HL-60(TB) leukemia was over 100 µM in each case.
Regarding `C=CCN(/C=C1/C(=O)O[C@H](COC)[C@@]2(C)C1=C(O)C(=O)C1=C2[C@H](OC(C)=O)C[C@]2(C)C(=O)CC[C@@H]12)CC=C`, the GI50 was 0.331 µM with SK-OV-3 ovarian; 2.04 µM with HOP-62 NSCLC; 0.0783 µM with HOP-92 NSCLC; 0.379 µM in the assay with 786-0 renal; 1.08 µM in the assay with OVCAR-5 ovarian; 0.193 µM with TK-10 renal. For the same molecule, the GI50 in the assay on COLO 205 colon is 2.17 µM; in the assay on IGROV1 ovarian, 0.135 µM; with SNB-19 CNS it was 3.45 µM; in the assay on HL-60(TB) leukemia it was 0.286 µM. Also, the TGI in the assay on SK-OV-3 ovarian was over 8.47 µM; in the assay with HOP-62 NSCLC it was over 10 µM; in the assay on HOP-92 NSCLC, 1.57 µM; in the assay on 786-0 renal, over 10 µM; with OVCAR-5 ovarian, over 10 µM; in the assay with TK-10 renal, over 7.79 µM. The TGI in the assay on COLO 205 colon was over 10 µM; in the assay with IGROV1 ovarian it was 6.81 µM; in the assay on SNB-19 CNS, over 10 µM; in the assay on HL-60(TB) leukemia, over 10 µM.
Consider `COC(=O)C1C(O)CC(c2ccccn2)N(Cc2ccccc2)C1c1ccccn1` (stereo not given), for which the TGI with SK-OV-3 ovarian, in the assay on HOP-62 NSCLC, in the assay with HOP-92 NSCLC, in the assay on 786-0 renal, in the assay on OVCAR-5 ovarian and with TK-10 renal was over 100 µM each time. Further, the TGI is over 100 µM in the assay with COLO 205 colon, over 100 µM in the assay with IGROV1 ovarian, over 100 µM in the assay on SNB-19 CNS and 65.1 µM with HL-60(TB) leukemia.
With `O=C([CH-]C(=O)c1ccccc1)c1ccccc1.O=C([CH-]C(=O)c1ccccc1)c1ccccc1.O=C([CH-]C(=O)c1ccccc1)c1ccccc1.[Nd+3].[OH3+]`, the GI50 is 5.58 µM with SK-OV-3 ovarian; 2.62 µM with HOP-62 NSCLC; 8.29 µM in the assay with HOP-92 NSCLC; 5.06 µM in the assay with 786-0 renal; 39.5 µM in the assay with OVCAR-5 ovarian; 8.51 µM with TK-10 renal. Further, the GI50 with COLO 205 colon was 10.6 µM; with IGROV1 ovarian, 6.72 µM; with SNB-19 CNS, 4.52 µM; in the assay on HL-60(TB) leukemia, 1.5 µM. For the same molecule, the TGI with SK-OV-3 ovarian was 29.3 µM; in the assay on HOP-62 NSCLC, 9.96 µM; in the assay on HOP-92 NSCLC, 25.5 µM; in the assay on 786-0 renal, 18.5 µM; in the assay with OVCAR-5 ovarian, over 100 µM; with TK-10 renal, 74.7 µM. Also, the TGI with COLO 205 colon was found to be 25.6 µM; in the assay with IGROV1 ovarian, 49.8 µM; in the assay on SNB-19 CNS it was 29.1 µM; in the assay with HL-60(TB) leukemia it was 4.99 µM.
Take `CC1CC2CC(=O)CC3(C1)C2CCCN3CCCO` (stereo not given): the TGI in the assay with SK-OV-3 ovarian, with HOP-62 NSCLC, in the assay with HOP-92 NSCLC, with 786-0 renal, with OVCAR-5 ovarian and in the assay with TK-10 renal was over 100 µM each time. Further, the TGI in the assay with COLO 205 colon, in the assay on IGROV1 ovarian, with SNB-19 CNS and in the assay with HL-60(TB) leukemia was over 100 µM in each case.
On to `CC(C)CNCC(O)COc1ccc(C(C)(C)c2ccc(OCC(O)CNCC(C)C)cc2)cc1` (stereo not given), for which the GI50 is 4.09 µM in the assay on SK-OV-3 ovarian; 2.92 µM with HOP-62 NSCLC; 1.48 µM in the assay with HOP-92 NSCLC; 1.5 µM in the assay with 786-0 renal; 6.1 µM with OVCAR-5 ovarian; 2.03 µM in the assay with TK-10 renal. Also, the GI50 in the assay with COLO 205 colon is 1.59 µM; with IGROV1 ovarian, 3.66 µM; in the assay with SNB-19 CNS, 3.15 µM; with HL-60(TB) leukemia, 1.86 µM. Further, the TGI came out at 15.3 µM in the assay with SK-OV-3 ovarian; 11.7 µM in the assay on HOP-62 NSCLC; 9.17 µM with HOP-92 NSCLC; 3.03 µM with 786-0 renal; 20.2 µM in the assay on OVCAR-5 ovarian; 5.32 µM with TK-10 renal. Further, the TGI in the assay on COLO 205 colon amounted to 3.24 µM; in the assay on IGROV1 ovarian it was 15.5 µM; with SNB-19 CNS it was 10.9 µM; in the assay on HL-60(TB) leukemia, 3.76 µM.
Consider `CC1OC2=N[C@@H]1C(=O)N[C@@H](C(C)C)C1=N[C@H](C(=O)N[C@@H](C(C)C)C3=N[C@H](C(=O)N[C@@H](C(C)C)C4=N[C@H](C(=O)N[C@H]2C(C)C)C(C)O4)C(C)O3)C(C)O1` (stereo not given in full), for which the TGI in the assay on SK-OV-3 ovarian, in the assay on HOP-62 NSCLC, with HOP-92 NSCLC, in the assay with 786-0 renal, in the assay with OVCAR-5 ovarian and with TK-10 renal was over 10 µM throughout. For the same molecule, the TGI with COLO 205 colon, in the assay with IGROV1 ovarian, with SNB-19 CNS and in the assay with HL-60(TB) leukemia was over 10 µM throughout.

For the origin of these results see PubChem BioAssay (NCI).
